Results on 13 molecules are retold here after patent publication US7964636B2, “Synthesis and use of novel inhibitors and inactivators of protein arginine deiminases” (University of South Carolina, priority 2005, dated 2011).

Structures are written as SMILES. Where two headings read alike, the source gives them in different places.

The target in assay [1] is T1, PAD4 (Homo sapiens, UniProt Q9UM07). The note with it: cited from earlier work.
Assay [2] deals with T1, PAD4. As to the kind of experiment: IC50 assays (Example 2). It is filed as biochemical. The note with it: for IC50: 10 mM BAEE; for inhibition at the highest concentration tested: 500 μM.
Description: BAEE was then added to a final concentration of 10 mM to initiate the reaction. Reactions were then quenched after a further 15 min by flash freezing. The amount of Cit produced in the reaction was quantified using our assay for Cit production.
The target of assay [3] is T1, PAD4. As to the kind of experiment: Time course assays / inactivation kinetics (Example 2). It is filed as biochemical. The note with it: 2 mM BAEE.
The target in assay [4] is T1, PAD4. As to the kind of experiment: Time course inhibition assays (Example 1). The note with it: 10 mM BAEE, 10 mM CaCl2.
Description: Time course experiments were performed in assay buffers containing 10 mM BAEE, 100 mM HEPES (pH 7.6), 50 mM NaCl, 500 μM TCEP and 10 mM CaCl2 in the presence of various amounts of inhibitors. The assay buffers were pre-incubated at 37° C. for 10 minutes. […] At different time points, 60 μl of the reactions was withdrawn and quenched by flash freezing in liquid nitrogen. Color development and absorbance measurement at 540 nm of the samples were done as described in IC50 assays. […] [P]=vi[1−exp(−kobst)]/kobs (Eq. 2) where vi is the initial velocity, kobs is the pseudo-first-order rate constant, and [P] refers to the concentration of citrulline produced during the reaction process.
The target in assay [5] is T1, PAD4. As to the kind of experiment: H3-amidine inhibition assays. It is filed as biochemical. To be noted: BAEE substrate; 0, 5, 10 mM H3-amidine; read-out: Kis (linear competitive inhibition). The procedure:
Initial rates were determined in the absence and presence of various amounts of H3-amidine (0, 5, 10 mM), using BAEE as the substrate. […] After incubation at 37° C. for 15 min, the reactions were quenched and the amount of Cit produced quantified. The initial rates derived from these experiments were fit by non-linear least fit squares to equations representing linear competitive inhibition (Equation 4) and linear noncompetitive inhibition (Equation 5), using the using the GraFit™ version 5.0.11 software package. v=Vm[S]/(Km(1+[I]/Kis)+[S]) (Eq. 4) v=Vm[S]I(Km(1+[I]/Kis)+[S](1+[I]/Kii)) (Eq. 5)
Kii represents Ki intercept and Kis represents Ki slope. Comparisons of the standard errors derived from fits of the data to Equations 4 and 5 are most consistent with H3-amidine being a competitive inhibitor.

The target in assay [6] is T1, PAD4. As to the kind of experiment: IC50 assays of compounds 1, 2 and 3 (Example 1). To be noted: pre-incubation with PAD4 and Ca2+ (10 mM) for 10 min; BAEE 1 mM final; 20 min.
Description: PAD4 used in this work was GST-cleaved full-length PAD4 that was purified. A recombinant human PAD4 Escherichia coli expression system that was obtained from the Yamada group was transformed into E. coli Rosetta cells (EMD Biosciences) for the expression of fall-length PAD4 with an 8-residue N-terminal linker that is fused in frame to a PreScission protease cleavable GST tag.
The aforementioned reaction mixtures were pre-incubated with PAD4 (0.5 μM) at 37° C. for 10 minutes prior to the addition of BAEE (1 mM final concentration) to initiate the reaction. After 20 minutes the reactions were quenched by flash freezing in liquid nitrogen. […] The absorbance at 540 μm was then measured and compared to a Cit standard curve to determine the concentration of Cit produced during the course of the reactions.
The target in assay [7] is T1, PAD4. As to the kind of experiment: Inhibition assays with compound 1 (mode of inhibition, BAEE substrate). It is filed as biochemical. To be noted: 0, 5, 10 mM compound 1, read-out: Kis (linear competitive inhibition).
For assay [8], the system named is PAD4. To be noted: known PAD inhibitor; cited from earlier work.
[9] abbreviates: preincubation with PAD4 in 10 mM calcium for 15 min, read-out: IC50.

T1 sequence (Q9UM07 whole entry): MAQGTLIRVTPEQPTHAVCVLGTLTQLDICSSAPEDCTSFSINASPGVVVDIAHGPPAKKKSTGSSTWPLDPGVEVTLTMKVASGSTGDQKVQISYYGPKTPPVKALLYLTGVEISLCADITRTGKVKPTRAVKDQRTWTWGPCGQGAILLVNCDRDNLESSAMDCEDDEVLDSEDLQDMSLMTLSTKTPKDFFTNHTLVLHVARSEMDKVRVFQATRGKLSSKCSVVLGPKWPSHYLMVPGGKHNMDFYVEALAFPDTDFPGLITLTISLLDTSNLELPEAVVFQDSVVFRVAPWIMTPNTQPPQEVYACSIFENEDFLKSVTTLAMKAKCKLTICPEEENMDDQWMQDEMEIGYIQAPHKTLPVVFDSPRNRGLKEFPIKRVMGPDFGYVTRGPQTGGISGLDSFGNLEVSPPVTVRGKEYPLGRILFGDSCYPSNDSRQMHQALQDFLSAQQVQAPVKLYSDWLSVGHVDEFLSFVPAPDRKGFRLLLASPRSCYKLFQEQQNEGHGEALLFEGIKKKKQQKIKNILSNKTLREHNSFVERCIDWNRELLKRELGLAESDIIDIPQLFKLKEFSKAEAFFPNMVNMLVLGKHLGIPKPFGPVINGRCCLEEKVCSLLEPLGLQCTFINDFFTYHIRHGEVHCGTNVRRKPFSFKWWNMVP

Consider `N=C(N)CCl` [2-chloroacetamidine], for which, in assay [1], the Ki is 20 mM. The kinact/KI – broadly, the maximal inactivation rate divided by the concentration that gives half of it – in assay [1] (reported by the Fast group) was 0.583 M⁻¹ s⁻¹.

With `N=C(CCl)NCC[C@H](NC(=O)c1ccccc1)C(N)=O` [Cl2-amidine, N-α-benzoyl-N^4-(2-chloro-1-iminoethyl)-L-Dab amide], the IC50 (as a rule, the point on the concentration scale where inhibition reaches its midpoint) in assay [2] (setting [9]) was determined as 0.585 ± 0.065 mM.

Regarding `NC(=O)[C@H](CCCNC(=O)CCl)NC(=O)c1ccccc1` [Cl3-acetamide, N-α-benzoyl-N^5-(2-chloroacetyl)-L-Orn amide], the “inhibition at the highest concentration tested” value in assay [2] is “no inhibition”. Moreover, the IC50 in assay [2] (setting [9]) is above 0.5 mM.

As to `N=C(CCl)NCCCC[C@H](NC(=O)c1ccccc1)C(N)=O` [Cl4-amidine, N-α-benzoyl-N^6-(2-chloro-1-iminoethyl)-L-Lys amide], the IC50 in assay [2] (setting [9]) is 0.64 ± 0.01 mM.

Consider `N=C(CF)NCC[C@H](NC(=O)c1ccccc1)C(N)=O` [F2-amidine, N-α-benzoyl-N^4-(2-fluoro-1-iminoethyl)-L-Dab amide], for which the “time course of product formation” value in assay [3] is “linear with respect to time”. In addition, in assay [2] (at 1000 μM), the observed activity is 93 % of control. The IC50 in assay [2] (setting [9]) is above 1 mM.

`NC(=O)[C@H](CCCNC(=O)CF)NC(=O)c1ccccc1` [F3-acetamide, N-α-benzoyl-N^5-(2-fluoroacetyl)-L-Orn amide]: in assay [2], the “inhibition at the highest concentration tested” value is “no inhibition”. In addition, the IC50 in assay [2] (IC50, preincubation with PAD4 in 10 mM calcium for 15 min) was above 0.5 mM.

Regarding `N=C(CF)NCCC[C@H](NC(=O)c1ccccc1)C(N)=O` [F3-amidine, N-α-benzoyl-N^5-(2-fluoro-1-iminoethyl)-L-ornithine amide], the “time dependence of inhibition (progress curves)” value in assay [4] was “time dependent inhibition properties”.

Take `N=C(CF)NCCCC[C@H](NC(=O)c1ccccc1)C(N)=O` [F4-amidine, N-α-benzoyl-N^6-(2-fluoro-1-iminoethyl)-L-Lys amide]: the IC50 in assay [2] (setting [9]) stood at 0.655 ± 0.1 mM.

`CC(=N)NCC[C@H](NC(=O)c1ccccc1)C(N)=O` [H2-amidine, N-α-benzoyl-N^4-(1-iminoethyl)-L-Dab amide]: the “time course of product formation” value in assay [3] is reported as “linear with respect to time”. Besides, the IC50 in assay [2] (setting [9]) was above 1 mM.

On to `CC(=N)NCCC[C@H](NC(=O)c1ccccc1)C(N)=O` [H3-amidine, N-α-benzoyl-N^5-(1-iminoethyl)-L-Orn amide], for which, in assay [5], the Ki is 3.2 ± 0.9 mM. In assay [3], the “time course of product formation” value is reported as “linear with respect to time”. Moreover, in assay [2] (setting [9]), the IC50 was above 1 mM.

For `CC(=N)NCCCC[C@H](NC(=O)c1ccccc1)C(N)=O` [H4-amidine, N-α-benzoyl-N^6-(1-iminoethyl)-L-Lys amide], in assay [3], the “time course of product formation” value was “linear with respect to time”. In addition, the IC50 in assay [2] (setting [9]) was above 1 mM.

Turning to `CC(=N)NCCC[C@H](NC(=O)c1ccccc1)C(=O)O` [H-Amidine, N-α-benzoyl-N^5-(1-iminoethyl)-L-ornithine], it took 4.3 ± 0.7 mM to reach half-maximal inhibition in assay [6] (IC50). Also, the Ki in assay [7] stood at 1.7 ± 0.2 mM. Besides, the “time dependence of inhibition (progress curves)” value in assay [4] was “does not display time dependent inhibitory properties”.

For `CC(=O)O[C@H]1C(=O)[C@@]2(C)[C@H]([C@H](OC(=O)c3ccccc3)[C@]3(O)C[C@H](OC(=O)[C@H](O)[C@@H](NC(=O)c4ccccc4)c4ccccc4)C(C)=C1C3(C)C)[C@]1(OC(C)=O)CO[C@@H]1C[C@@H]2O` [taxol], the IC50 in assay [8] is around 5 mM.
